pIC50: −log10 of the molar value.
What was measured:
Plasmodium falciparum [1] = test: In vitro antimalarial activity for Plasmodium falciparum BHz26/86; type: functional, organism-based
Plasmodium falciparum [2] = test: In vitro antimalarial activity for Plasmodium falciparum D6; type: functional, organism-based
Plasmodium falciparum [3] = test: In vitro antimalarial activity for Plasmodium falciparum HB3; type: functional, organism-based
Plasmodium falciparum [4] = test: In vitro antimalarial activity for Plasmodium falciparum W2; type: functional, organism-based
Plasmodium berghei [5] = test: Inhibition of Plasmodium berghei infection in mice (Mus musculus) at 200 mg/kg peroral dose (expt 2); type: functional; conditions: route oral
Plasmodium berghei [6] = test: Inhibition of Plasmodium berghei infection in mice (Mus musculus) at 200 mg/kg peroral dose (expt 1); type: functional; conditions: route oral
Plasmodium berghei [7] = test: Inhibition of Plasmodium berghei infection in mice (Mus musculus) at 200 mg/kg subcutaneous dose (experiment 1); type: functional; conditions: sc
Plasmodium berghei [8] = test: Inhibition of Plasmodium berghei infection in mice (Mus musculus) at 100 mg/kg subcutaneous dose (expt 1); type: functional; conditions: sc
Plasmodium berghei [9] = test: Inhibition of Plasmodium berghei infection in mice (Mus musculus) at 200 mg/kg subcutaneous dose (expt 3); type: functional; conditions: sc
Plasmodium berghei [10] = test: Inhibition of Plasmodium berghei infection in mice (Mus musculus) at 100 mg/kg subcutaneous dose (experiment 2); type: functional; conditions: sc
Plasmodium berghei [11] = test: Inhibition of Plasmodium berghei infection in mice (Mus musculus) at 200 mg/kg subcutaneous dose (expt 2); type: functional; conditions: sc
Plasmodium berghei [12] = test: Inhibition of Plasmodium berghei infection in mice (Mus musculus) at 100 mg/kg subcutaneous dose (expt 3); type: functional; conditions: sc
Plasmodium berghei [13] = test: Inhibition of Plasmodium berghei infection in mice (Mus musculus) at 15 mg/kg subcutaneous dose (experiment 2); type: functional; conditions: sc
Plasmodium berghei [14] = test: Inhibition of Plasmodium berghei in mice (Mus musculus) after 15 mg/kg subcutaneous dose (experiment 1); type: functional; conditions: sc
Plasmodium berghei [15] = test: Inhibition of Plasmodium berghei infection in mice (Mus musculus) at 15 mg/kg subcutaneous dose (experiment 3); type: functional; conditions: sc
Plasmodium berghei [16] = test: Inhibition of Plasmodium berghei infection in mice (Mus musculus) at 25 mg/kg peroral dose (experiment 1); type: functional; conditions: route oral
Plasmodium berghei [17] = test: Inhibition of Plasmodium berghei infection in mice (Mus musculus) at 25 mg/kg peroral dose (expt 2); type: functional; conditions: route oral

Row | Compound | pIC50 (Plasmodium falciparum [1]) | pIC50 (Plasmodium falciparum [2]) | pIC50 (Plasmodium falciparum [3]) | pIC50 (Plasmodium falciparum [4]) | inhibition in vivo at 200 mg/kg (Plasmodium berghei [5]) [%] | inhibition in vivo at 200 mg/kg (Plasmodium berghei [6]) [%] | also measured
1 | c1ccc2c(c1)ccc1nc3ccccc3nc12 [BENZO[A]PHENAZINE] | < 4.70 | < 4.70 | < 4.70 | < 4.70 |  |  | 
2 | CC1(C)CCC2=C(O1)c1ccccc1C(=O)C2=O [LAPACHONE] |  |  |  |  | 34 | 28 | 
3 | CC1(C)Oc2c(c3nc4ccccc4nc3c3ccccc23)CC1S(=O)(=O)O (configuration not stated) | 5.76 | 5.61 | 5.21 | 5.78 | 36 | 33 | inhibition in vivo at 200 mg/kg (Plasmodium berghei [7]): 50%; inhibition in vivo at 100 mg/kg (Plasmodium berghei [8]): 34%; inhibition in vivo at 200 mg/kg (Plasmodium berghei [9]): 98%; inhibition in vivo at 100 mg/kg (Plasmodium berghei [10]): 31%; inhibition in vivo at 200 mg/kg (Plasmodium berghei [11]): 40%
4 | C=CCC1Cc2c(c3ccccc3c3nc4ccccc4nc23)OC1(C)C (configuration not stated) | < 4.70 | < 4.70 | < 4.70 | < 4.70 |  |  | 
5 | CC(C)=CCc1c(O)c2ccccc2c2nc3ccccc3nc12 | 5.50 | 5.43 | 5.03 | 5.45 |  |  | 
6 | CC1(C)Oc2c(c3nc4ccccc4nc3c3ccccc23)CC1Br (configuration not stated) | 5.72 | 5.39 | 5.06 | 5.52 | 10 | 11 | inhibition in vivo at 200 mg/kg (Plasmodium berghei [7]): 0%; inhibition in vivo at 100 mg/kg (Plasmodium berghei [8]): 0%; inhibition in vivo at 200 mg/kg (Plasmodium berghei [9]): 0%; inhibition in vivo at 100 mg/kg (Plasmodium berghei [12]): 0%; inhibition in vivo at 100 mg/kg (Plasmodium berghei [10]): 0%; inhibition in vivo at 200 mg/kg (Plasmodium berghei [11]): 0%
7 | CC(C)=CCC1=C(O)C(=O)c2ccccc2C1=O [LAPACHOL] |  |  |  |  | 0 | 0 | 
8 | CC1(C)CCc2c(c3ccccc3c3nc4ccccc4nc23)O1 | < 4.70 | < 4.70 | < 4.70 | < 4.70 |  |  | 
9 | CC1(C)Oc2c(c3nc4ccccc4nc3c3ccccc23)CC1I (configuration not stated) | 5.64 | 5.37 | 5.18 | 5.49 |  |  | 
10 | CCN(CC)CCCC(C)Nc1ccnc2cc(Cl)ccc12 (configuration not stated) [CHLOROQUINE] |  |  |  |  |  |  | inhibition in vivo at 15 mg/kg (Plasmodium berghei [13]): 99%; inhibition in vivo at 15 mg/kg (Plasmodium berghei [14]): 99%; inhibition in vivo at 15 mg/kg (Plasmodium berghei [15]): 99%; inhibition in vivo at 25 mg/kg (Plasmodium berghei [16]): 99%; inhibition in vivo at 25 mg/kg (Plasmodium berghei [17]): 98%
